Source: patent US9914730B2, “Azaquinazoline inhibitors of Atypical protein Kinase C” (Ignyta, Inc., priority 2012, dated 2018)

Target: T1, full-length human PKCι (Homo sapiens, UniProt P41743)
T1 construct: Recombinant, full-length human PKCι expressed in Sf21 insect cells is also commercially available; purchased; host or cells: Sf21 insect cells
T1 sequence (P41743 1-596): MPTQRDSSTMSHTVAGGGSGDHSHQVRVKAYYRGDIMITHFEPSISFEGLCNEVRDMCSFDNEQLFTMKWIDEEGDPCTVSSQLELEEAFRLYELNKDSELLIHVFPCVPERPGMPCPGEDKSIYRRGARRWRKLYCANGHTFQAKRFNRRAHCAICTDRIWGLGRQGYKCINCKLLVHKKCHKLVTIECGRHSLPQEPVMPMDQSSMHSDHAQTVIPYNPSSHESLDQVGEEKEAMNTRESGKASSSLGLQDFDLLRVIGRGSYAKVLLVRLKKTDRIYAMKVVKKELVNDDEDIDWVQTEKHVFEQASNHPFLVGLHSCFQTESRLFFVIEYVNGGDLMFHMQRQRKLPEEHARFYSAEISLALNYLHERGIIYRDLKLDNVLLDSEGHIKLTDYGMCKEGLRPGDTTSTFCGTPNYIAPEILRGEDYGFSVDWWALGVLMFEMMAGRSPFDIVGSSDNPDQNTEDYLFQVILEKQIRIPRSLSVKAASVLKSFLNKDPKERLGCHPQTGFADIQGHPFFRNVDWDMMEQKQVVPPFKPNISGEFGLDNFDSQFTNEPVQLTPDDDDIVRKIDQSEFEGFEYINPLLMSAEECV
Assay: PKCι IC50 IMAP assay, full-length PKCι at 150 μM ATP
Assay type: biochemical
Settings: read-out: IC50 in IMAP assay against full length PKCi at 150 μM ATP
In short: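 Phosphorylation of a 5FAM-tagged PKCε pseudopeptide-derived substrate (100 nM) by full-length recombinant human PKCι was monitored by IMAP fluorescence polarisation. ATP was held at 150 μM, five times its apparent KM, with 60 min room-temperature incubation.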

Row | Structure (SMILES) | IC50 [nM]
1 | COc1cncc2nc(-c3ccnc(Nc4cnn(-c5ccccc5F)c4)c3)nc(N3CCNCC3)c12 [Example 491, [1-(2-Fluoro-phenyl)-1H-pyrazol-4-yl]-[4-(5-methoxy-4-piperazin-1-yl-pyrido[3,4-d]pyrimidin-2-yl)-pyridin-2-yl]-amine] | < 100
2 | COc1cncc2nc(-c3ccnc(Nc4ccc(N5CCOCC5)nc4)c3)nc(N[C@@H]3CCNC3)c12 [Example 330, {5-Methoxy-2-[2-(6-morpholin-4-yl-pyridin-3-ylamino)-pyridin-4-yl]-pyrido[3,4-d]pyrimidin-4-yl}-(R)-pyrrolidin-3-yl-amine] | < 100
3 | c1ccc(C[C@H]2CN(c3nc(N4CCOCC4)nc4cnccc34)CCN2)cc1 [Example 1000, 4-((S)-3-Benzyl-piperazin-1-yl)-2-morpholin-4-yl-pyrido[3,4-d]pyrimidine] | 1000 to 10000
4 | CN(CC1CCNCC1)c1nc(-c2ccnc(Nc3ncc(F)cc3F)c2)nc2cncc(C3CC3)c12 [Example 2167, {5-Cyclopropyl-2-[2-(3,5-difluoro-pyridin-2-ylamino)-pyridin-4-yl]-pyrido[3,4-d]pyrimidin-4-yl}-methyl-piperidin-4-ylmethyl-amine] | < 100
5 | O=C(CC(F)(F)F)Nc1cc(-c2nc(N3CCNCC3)c3c(C4CC4)cncc3n2)ccn1 [Example 613, N-[4-(5-Cyclopropyl-4-piperazin-1-yl-pyrido[3,4-d]pyrimidin-2-yl)-pyridin-2-yl]-3,3,3-trifluoro-propionamide] | < 100
6 | c1cc(C2CC2)c2nc(Nc3cc(-c4nc(N5CCNCC5)c5c(C6CC6)cncc5n4)ccn3)nn2c1 [Example 846, [4-(5-Cyclopropyl-4-piperazin-1-yl-pyrido[3,4-d]pyrimidin-2-yl)-pyridin-2-yl]-(8-cyclopropyl-[1,2,4]triazolo[1,5-a]pyridin-2-yl)-amine] | < 100
7 | c1cc(-c2nc(N3CCNCC3)c3ccncc3n2)ccn1 [Example 1, 1-[2-(pyridin-4-yl)pyrido[3,4-d]pyrimidin-4-yl]piperazine] | 100 to 1000
8 | c1cc(-c2nc(N3CCNCC3)c3c(C4CC4)cncc3n2)cc(N[C@@H]2CCOC2)n1 [Example 509, [4-(5-Cyclopropyl-4-piperazin-1-yl-pyrido[3,4-d]pyrimidin-2-yl)-pyridin-2-yl]-(R)-tetrahydro-furan-3-yl-amine] | < 100
9 | c1ccc(-n2cc(Nc3cc(-c4nc(N5CCNCC5)c5c(C6CC6)cncc5n4)ccn3)cn2)cc1 [Example 492, [4-(5-cyclopropyl-4-piperazin-1-yl-pyrido[3,4-d]pyrimidin-2-yl)-pyridin-2-yl]-(1-phenyl-1H-pyrazol-4-yl)-amine] | < 100
10 | c1ccc(C2(c3cc4c(-c5nc(N6CCNCC6)c6c(C7CC7)cncc6n5)ccnc4[nH]3)CC2)cc1 [Example 1240, 5-Cyclopropyl-2-[2-(1-phenyl-cyclopropyl)-1H-pyrrolo[2,3-b]pyridin-4-yl]-4-piperazin-1-yl-pyrido[3,4-d]pyrimidine] | < 100
11 | Fc1cccc(F)c1Nc1cc(-c2nc(OC3CCNCC3)c3c(C4CC4)cncc3n2)ccn1 [Example 757, {4-[5-Cyclopropyl-4-(piperidin-4-yloxy)-pyrido[3,4-d]pyrimidin-2-yl]-pyridin-2-yl}-(2,6-difluoro-phenyl)-amine] | 100 to 1000
12 | N#Cc1ccc(Nc2cc(-c3nc(N4CCNCC4)c4c(C5CC5)cncc4n3)ccn2)cc1 [Example 645, 4-[4-(5 Cyclopropyl-4-piperazin-1-yl-pyrido[3,4-d]pyrimidin-2-yl)-pyridin-2-ylamino]-benzonitrile] | < 100
13 | c1cc(-c2nccc3c(N[C@@H]4CCNC4)nc(N4CCOCC4)nc23)[nH]n1 [Example 1012, [2-Morpholin-4-yl-8-(2H-pyrazol-3-yl)-pyrido[3,4-d]pyrimidin-4-yl]-(R)-pyrrolidin-3-yl-amine] | 1000 to 10000
14 | c1cc2c(N3CCNCC3)nc(-c3ccnc4[nH]ccc34)nc2cn1 [Example 1207, 4-Piperazin-1-yl-2-(1H-pyrrolo[2,3-b]pyridin-4-yl)-pyrido[3,4-d]pyrimidine] | 100 to 1000
